Results from patent publication US20220378763A1, “COMPOUND FOR TREATMENT OF ACUTE INFLAMMATION IN THE MYOCARDIUM” (CALPROTECT AB, priority 2019, published 2022).

Legend:
Assay type in all cases: in vivo, mouse
[1] = tested on: BALB/c mice with induced myocarditis; test: Myocarditis induced by cardiac α-myosin peptide: echocardiography; settings: 30 mg/kg/day orally from day 7
Experimental: Female BALB/c mice, 8 weeks of age, were purchased from Taconic and housed under 12 h:12 h light:dark cycles with access to food and water ad libitum. To induce myocarditis, all mice were injected subcutaneously (s.c.) with 100 μg murine cardiac a-myosin heavy chain peptide (Ac-RSLKLMATLFSTYASADR-OH, Anaspec) emulsified 1:1 in complete Freund's adjuvant containing 1 mg/mL heat-killed Mycobacterium tuberculosis H37Ra (Sigma-Aldrich), on days 0 and 7 (FIG. 17A). ABR-238901 was administered orally ad-libitum diluted in meglumine buffer (to prevent precipitation in the drinking bottle during the course of the experiment) at a dose of 30 mg/kg/day, starting on day 7 and throughout the course of the experiment (n=9 mice). Fluid intake was closely monitored during the experiment to ensure an appropriate drug dosage. Mice with induced myocarditis drinking meglumine buffer alone ad-libitum were used as controls (n=12 mice). Mice received daily attendance to ensure their well-being. All mouse studies were approved by the Animal Research Ethics Committee of Lund University.
Transthoracic echocardiography was performed as described under Example 7. Cardiac function was evaluated by echocardiography at baseline and at 21, 28 and 35 days after the first injection of murine cardiac a-myosin heavy chain peptide.

[2] = tested on: C57BL/6 mice with MI induced by permanent coronary artery ligation; test: MI by permanent coronary artery ligation, short-term (3 days) treatment: echocardiography, MRI, scar, infarct size, TUNEL; settings: for Size of the infarction, percentage of the AAR volume, vs PBS: TTC
Excerpt: All mouse studies were approved by the Animal Research Ethics Committee of Lund University. C57BL/6NRJ mice were purchased from Janvier Labs, C57BL/6-Tg(Nr4a1-EGFP/cre)820Khog/J (Nur77-EGFP) and B6;D2-Tg(Myh6*-mCherry)2Mik/J (α-MHC-mCherry) were purchased from the Jackson Laboratory. Nur77-EGFP mice express the fluorescent EGFP protein under the Nur77 promoter. α-MHC-mCherry mice express the red fluorescent Cherry protein under the mouse alpha myosin heavy-chain promoter in cardiomyocytes. We used 8-12 weeks old female mice in all experiments. MI was induced by left coronary artery ligation using a minimal thoracotomy model. Mice were initially anesthetized with 4% isoflurane and the surgical procedure was performed under 1.7% isoflurane. Following heart exposure outside of the thorax through a small thoracic incision, the left coronary artery was permanently ligated using silk 6.0 suture, the heart repositioned, and the thorax was closed with 6.0 prolene monofilament suture.
For short-term experiments, a daily dose of 30 mg/Kg ABR-238901 was diluted in PBS and administered by daily i.p. injections for the first 3 days post-MI, starting immediately after ischemia induction (days 0, 1 and 2) (FIG. 1A).
(§1) Ultrasound measurements were performed at day −1 (baseline), 7, and 21 to assess cardiac function using a Vevo 770 echocardiographic imaging system with a 707B probe (VisualSonics, Toronto, Canada). In selected experiments, additional assessment was performed on days 3 and 14. The mice were anesthetized using 1-3% isoflurane and hair was carefully removed using depilatory cream. To maintain body temperature, the mice were placed in supine position on a heated surface (37° C.). Two-dimensional M-mode images were recorded in the parasternal short-axis view at the mid-papillary level. Five complete cardiac cycles were traced to calculate fractional shortening, ejection fraction, left ventricular systolic volume, and left ventricular diastolic volume by using the VisualSonics software.
(§2) At 21 days after MI, the hearts were perfused with ice cold PBS and excised under ketamine/xylazine anesthesia. Subsequently the hearts were fixed in 4% (w/v) paraformaldehyde and embedded in paraffin. The hearts were sectioned transversely from the apex to the level of the suture, and 6 μm thick sections were collected at 390 μm intervals. The sections were mounted on glass slides and stained with Van Gieson or Masson trichrome stain for quantitative analysis of scar size. Alarmin S100A8/A9 was detected using mouse anti-S100A8/A9 IgG1 antibody (Abcam, ab 130234, 1:100 dilution, O/N 4° C.). Goat anti-mouse IgG1 HRP-conjugated secondary antibody (Abcam, ab 97240, 1 h RT) was used and the staining was developed with ImmPACT™ DAB (Vector, SK-4105) chromogen as substrate. The slides were subsequently scanned using an Aperio digital pathology slide scanner (Leica Biosystems), and images were captured with the ImageScope software (Leica Biosystems). Left ventricle area and the infarcted area were measured on each section by using the BioPix iQ 2.5.0 software (Biopix AB). The size of the post-MI myocardial scar was expressed as percentage of the left ventricle volume below the coronary ligature.
Magnetic resonance measurements were performed on a 9.4 T horizontal magnet (Agilent, Santa Clara, USA) equipped with Bruker BioSpec AVIII electronics operating with ParaVision 6.0.1 (Bruker, Ettlingen, Germany). The experiments were conducted under general anaesthesia using a mixture of isoflurane (2%) and 98% O2 via a nose cone. Rectal temperature, ECG signal, and breathing rate were monitored throughout the measurements (SA instruments, Stony Brook, USA). During the experiment, the mouse was positioned prone in an animal holder and kept warm to maintain constant body temperature at 36-37° C. ECG and respiration triggered FLASH sequence was used to acquire cinematographic MR image series of the beating heart. […]

[3] = tested on: C57BL/6 mice with permanent coronary artery ligation; test: MI by permanent coronary artery ligation, long-term (21 days) treatment: echocardiography and scar size; settings: treatment for 21 days
Experimental: as §1, §2
MI induction and other procedures were carried out as outlined in Example 2. For long-term experiments of up to 21 days, a daily dose of 30 mg/Kg ABR-238901 was diluted in PBS and administered by daily i.p. injections for the first 3 days post-MI until the mice recovered and started to drink normally, and thereafter p.o. ad-libitum in meglumine buffer (FIG. 4A). Adequate treatment dosage was ensured by closely monitoring daily fluid intake.

[4] = 3 days treatment, MR, not statistically significant

## COc1ncc(S(=O)(=O)Nc2cncc(Cl)c2O)cc1Br [ABR-238901, 5-bromo-N-(5-chloro-4-hydroxypyridin-3-yl)-6-methoxypyridine-3-sulfonamide]
[1]; day 28
  Cardiac output: 11.26 mL/min
  Left ventricular ejection fraction (LVEF): 52%
[1]; day 35
  Cardiac output: 12.03 mL/min
  Left ventricular ejection fraction (LVEF): 53%
[2]; 30 mg/Kg i.p. at 0, 24, 48 h, echocardiography, day 21
  Left ventricular EF, average: 36%
[2]; 30 mg/Kg i.p. at 0, 24, 48 h, echocardiography, days 3, 7, 21
  Left ventricular EF vs PBS-treated controls: higher throughout the follow-up period
[2]; 3 days treatment, MR
  Increase in cardiac output from day 3 to day 21: approximately 30%
[2]; 3 days treatment, MR, day 3
  Cardiac output (CO): 8.1 mL/min
  Left ventricular EF: 29%
[2]; 3 days treatment, MR, day 7
  Left ventricular EF: 25%
[2]; 3 days treatment, MR, day 21
  Cardiac output (CO): 10.4 mL/min
  Left ventricular EF: 26%
[2]; [4]
  EDV vs PBS-treated MI group: tendency towards lower
  ESV vs PBS-treated MI group: tendency towards lower
[2]; 3 days treatment, day 3 post-MI
  Size of the infarction, percentage of the AAR volume, vs PBS: smaller
[2]; 3 days treatment, day 7 post-MI
  Size of the infarction, percentage of the AAR volume, vs PBS: smaller
[2]; 3 days treatment, day 21, Van Gieson staining
  Average myocardial scar size vs controls: tendency towards smaller
[2]; day 3 post-MI
  Percentage of apoptotic cells in the myocardium (TUNEL): significantly reduced
[3]; 30 mg/Kg i.p. 3 days then p.o., echocardiography
  Cardiac function (left ventricular ejection fraction): progressive deterioration
[3]; 21 days
  Size of the myocardial scar: increased
[3]; day 21
  EDV vs controls: increased
  ESV vs controls: increased
